Results taken from publication PMC8227935, “In Silico Predicted Antifungal Peptides: In Vitro and In Vivo Anti-Candida Activity” (Journal of Fungi, 2021).
No end group written: not given here.

What was measured:
C. albicans SC5314 [1] = conditions: C. albicans SC5314, parent K10S peptide; cited from earlier work
Description: Candidacidal activity of all tested peptides was very fast. After 30 min, in fact, percental killing ranged from 68% (K10S-SS) to nearly 100% (R-10S-RR and K10S-I).

C. albicans SC5314 [2] = conditions: G. mellonella larvae infected with C. albicans, treated with parent K10S peptide; controls 24 h; previous work; cited from earlier work
Description: Therapeutic activity of ISDPs against C. albicans infection was evaluated in G. mellonella larvae. After the inoculum of a lethal dose of yeast cells, a single injection of peptides led to a significant increase in survival of larvae in comparison with infected animals inoculated with saline. The median survival time was 48 h for larvae treated with R10S-RR and K10S-I, and 24 h for larvae treated with K10T-TT and K10S-SS, versus 24 h for the control group. In a previous work, a median survival time of 72 h was reported for larvae treated with the parent K10S peptide in comparison with 24 h for ...

C. albicans SC5314 cells = conditions: parent peptide K10S; cited from earlier work
From the text: The individual amino acid substitutions also influenced the possible mechanism of action of the peptides. […] All ISDPs were characterized by the ability to induce intracellular ROS production (Figure 5).

C. albicans SC5314 [3] = conditions: C. albicans SC5314, CFU assay; EC50 of K10S parent peptide; read-out: EC50 (95% Confidence Intervals); cited from earlier work
From the text: Table 3 In vitro candidacidal activity of in silico designed peptides (ISDPs) against C. albicans SC5314. | column: EC50 ^1 (95% Confidence Intervals)

C. albicans SC5314 [4] = format: cell-based, Candida albicans
Description: The candidacidal activity of ISDPs was evaluated by conventional colony forming unit (CFU) assays, as previously described. ISDPs were tested at serial dilutions to determine the half maximal effective concentration (EC50) values. Briefly, approximately 500 germinating C. albicans SC5314 cells were suspended in 100 µL of distilled water in the presence or absence (control growth) of ISDPs. After incubation at 37 °C for 6 h, cell suspensions were plated on Sabouraud dextrose agar. CFUs were enumerated after 48–72 h of incubation at 30 °C, and candidacidal activity was determined as a percentage of CFU reduction. Each assay was carried out in triplicate and at least two independent experiments were performed for each condition. EC50 was calculated by nonlinear regression analysis using GraphPad Prism 5 software. Afterwards, the kinetics of ISDPs killing activity, at their 2× EC50 value concentration, was determined by CFU assays up to 6 h. Samples were collected for CFU determination after 5, 10, 15, 20, 30, 60, 120, 240, and 360 min incubation.
Figure 1 Time kinetics of in vitro activity of in silico designed peptides (ISDPs) against Candida albicans SC5314. Peptide concentrations were equal to their 2× EC50 values. The activity is expressed as percental killing; reported data represent mean values ± standard deviation.

[5] = system: monkey kidney epithelial cells (LLC-MK2); experiment: MTT cytotoxicity assay; format: cell-based; conditions: 200 µM peptide, 24 h, vs. 100% of untreated control cells
Description: MTT assay, based on the ability of metabolically active cells to convert the yellow water-soluble tetrazolium salt into formazan crystals, was used to evaluate peptide cytotoxicity against monkey kidney epithelial cells (LLC-MK2). LLC-MK2 cells were treated with ISDPs (50, 100, and 200 µM) for 24 h. Cells in medium without peptide served as control. After this period, cells were incubated with MTT (5 mg/mL, 10 μL/well) in serum-free medium for 2 h at 37 °C, the medium was removed, and the crystal formazan dye was solubilized by adding isopropanol with 5% HCl 1 M (100 μL). Absorbance was measured at 540 nm.

[6] = system: human red blood cells (hRBCs); experiment: Hemolytic activity, hemoglobin release; format: cell-based; conditions: human red blood cells (group 0 Rh+), 50 µM peptide, 37 °C, absorbance 540 nm, PBS 0%, Triton 1% 100%
Description: Hemolytic and cytotoxic effects were determined as previously described. In particular, ISDPs (final concentrations of 25, 50, and 100 µM) were tested for their hemolytic activities against human red blood cells (hRBCs) (group 0 Rh+). After 30 and 120 min incubation at 37 °C, the release of hemoglobin was monitored by measuring the absorbance of the supernatant at 540 nm. Controls for zero hemolysis (blank) and 100% hemolysis consisted of hRBCs suspended in PBS and Triton 1%, respectively.

Sequence	percental killing at 30 min (C. albicans SC5314 [1])	median survival time (C. albicans SC5314 [2])	apoptosis induction (C. albicans SC5314 cells)	EC50 (C. albicans SC5314 [3])	percental killing after 30 min (C. albicans SC5314 [4])	cell viability [5]	hemolysis ([6]; 30 min)	hemolysis ([6]; 120 min)
KKVTMTCSAS [Peptide K10S]	36.93%	72 h	lack of induction of apoptotic processes	277 nM				
KKVSMSCSAS [Peptide K10S-SS]					68%	92.5 ± 0.11%	2.38%	2.01%
